# Entries after “also recorded” stand apart in the source; their conditions may differ. Square brackets hold non-standard residues; d marks the D form. Peptide text beside a SMILES is read from it. ξ: configuration not given here. Ile(3ξ) = CCC(C)[C@H](N)C(=O)O; Thr(3ξ) = CC(O)[C@H](N)C(=O)O; Nle = CCCC[C@H](N)C(=O)O
# Assays:
# [1] = system: cytarabine-induced toxicity; test: Apraglutide dose-response study with cytarabine chemotherapy; assay type: in vivo, BALB/cJ female mice; settings: for polymorphonuclear (PMN) cell count: cytarabine alone or combined with hGLP-2 or apraglutide
# Experimental: The apraglutide dose-dependent impact on the immunosuppressive effect of cytarabine was evaluated. The effect of cytarabine treatment on polymorphonuclear (PMN) cell count was determined (FIG. 20). […] In a separate study during which animals treated with cytarabine alone or in combination with apraglutide initiated before cytarabine (Days-4 to +12) were allowed to survive for 4 additional weeks.
# [2] = system: fecal microbiota (Bacteroidetes, Firmicutes); test: Fecal microbiota composition during cytarabine chemotherapy (16S taxonomical meta-sequencing); assay type: in vivo, Balb/c mice; settings: for changes in the composition of bacterial species (Bacteroidetes, Firmicutes): Days 0 to 18
# human leukemia cells = settings: vs vehicle
# Experimental: In a first experiment, cytarabine's anti-tumor effects were assessed in leukemic NOD/SCID mice (FIG. 11a). Apraglutide or vehicle was administered on Days −4 to 4. Cytarabine or vehicle was administered on Days 0-4. Bone marrow and spleen samples were collected on Day 7 and percentage of hCD45+ cells determined.
# [3] = system: acute gastrointestinal GvHD mouse model; test: Acute GvHD mouse model, first experiment (8.5 Gy irradiation + allogeneic bone marrow/spleen cell transplant); assay type: in vivo, BALB/cJ male mice
# Experimental: Mouse #3 (Group A), #13 (Group B) and #20 (Group B) were administered the cells by subcutaneous injection rather than intravenously. Mouse #5 (Group B) and #10 (Group B) received half the cells by intravenous injection and half by subcutaneous injection.
# Various histological parameters of the jejunum were also measured, including single cell necrosis levels, necrosis of all crypts, shortening of villi, cryptal hyperplasia (regenerative), cell infiltrate, and cryptal abscess. These histological parameters were graded on a standard histological grading system (1 to 3). […] These indicate that the administration of apraglutide has a protective effective against jejunal mucosal damages induced by irradiation and GvHD.
# blood cell count = test: Cytarabine-induced immunosuppression (blood cell counts); assay type: in vivo, Balb/c mice; settings: 4 weeks after the end of treatment
# Experimental: In a second experiment, apraglutide's effect on the ability of cytarabine to induce immunosuppression was assessed. The experiment included three groups of Balb/c mice: (A) vehicle; (B) cytarabine on Days 5-9; (C) cytarabine on Days 5-9, concomitant apraglutide on Days 5-18. RBC, platelets, WBC, NEU and LYMPH were assessed. A cohort was allowed to survive for 4 weeks to assess the effect of apraglutide on immunosuppression recovery (FIG. 12).
# WBC, NEU and LYMPH = test: Melphalan-induced immunosuppression (WBC, NEU, LYMPH); assay type: in vivo, Balb/c mice
# Experimental: In a third experiment, the effect of apraglutide on melphalan-induced immunosuppression was assessed (FIG. 13). Three groups of Balb/c mice were included: (A) vehicle; (B) melphalan on Day 9; (C) melphalan on Day 9, apraglutide pre-treatment on Days 1, 3, 5, 7 and continued as co-administration on Days 9, 11, and 13. WBC, NEU and LYMPH were assessed.
# [4] = system: acute gastrointestinal GvHD mouse model; test: Acute GvHD mouse model, second experiment (7.0 Gy irradiation + allogeneic transplant)
# Experimental: In a second experiment BALB/cJ male mice were separated into three groups, Group A, Group B and Group C. Groups A and B consisted of 10 mice and Group C consisted of 5 mice.
# Mice in Group A received subcutaneous injections of apraglutide in an amount of 3 mg/kg/mouse (administered in 300 μl of vehicle), every second day from Day −9 to Day +7 (Days: −9, −7, −5, −3-1, +1, +3, +5, +7).
# Mice in Group B received subcutaneous injections of 300 μl of vehicle control every second day starting from Day −9 to Day +7 (Days: −9, −7, −5, −3−1, +1, +3, +5, +7).
# Mice in Group C received subcutaneous injections of 300 μl of vehicle control every second day starting from Day −9 to Day +7 (Days: −9, −7, −5, −3−1, +1, +3, +5, +7).
# On Day −1 of the experiment, all mice in Groups A and B were irradiated with 7.0 Gy using an linac x-ray source. Group C was not irradiated but were injected with the vehicle only.
# On Day 0 of the experiment, bone marrow and T cells from C57BL/6J mice were collected, prepared and transplanted into the mice of Group A and Group B. Each mouse in Group A and Group B was intravenously injected with 10 million bone marrows cells extracted from the femurs of the C57BL/6J mice and 2.5 million spleen cells extracted from the C57BL/6J mice.
# Morbidity, mortality, body weight, clinical signs (diarrhea, appearance and behavior), length of intestinal segments, and histopathology of the intestine, skin, spleen and liver were monitored in the mice of Group A, Group B and Group C. All mice were sacrificed at Day +14 at the latest.
# [5] = system: acute GVHD-induced intestinal damage; test: TBI-induced intestinal damage with allogeneic transplantation (Example 2, second experiment)
# Experimental: In a second experiment, TBI-induced intestinal damaged BALB/cJ mice received allogeneic transplantation and were treated with apraglutide (3.3 mg/kg) or vehicle on Days −9, −7, −5, −3-1, +1, +3, +5, +7. Intestinal damage indicative of GvHD (histological changes, length, hemorrhage, inflammation), body weight, and survival were assessed.
# [6] = system: human peripheral blood mononuclear cell (hPBMC) engraftment; test: Engraftment of human PBMC in total-body-irradiated NOG mice; assay type: in vivo, immunodeficient (NOG) mice
# Experimental: Engraftment rate was determined through CD45 expression in blood, bone marrow and spleen.
# [7] = system: chemotherapy-induced gastrointestinal (GI) damage; test: Chemotherapy-induced (cytarabine or melphalan) intestinal damage in mice; assay type: in vivo, Balb/c mice
# Experimental: In a first experiment, 4 groups of Balb/c mice: (A) vehicle only; (B) cytarabine on Days 5-9, no apraglutide given; (C) cytarabine on Days 5-9; concomitant apraglutide on Days 5-18; (D) cytarabine on Days 5-9; pre-treatment apraglutide on Days 1, 3, and continued as concomitant treatment on Days 5, 8, 11, 14, and 17. Treatment groups were dosed with 30 mg/kg cytarabine and/or apraglutide 3.3 mg/kg.
# In a second experiment, 3 treatment groups of Balb/c mice: (A) vehicle only; (B) melphalan on Day 9, no apraglutide; (C) melphalan on Day 9; pre-treatment apraglutide on Days 1, 3, 5, 7 and continued as concomitant treatment on Days 9, 11, and 13.
# In both models, mice that received vehicle without any treatment served as controls. Intestinal tissue histology, body weight, survival, and plasma citrulline, a marker of total mucosal mass and intestinal growth, was assessed in both models.
# [8] = apraglutide 3 mg/kg s.c., histological grading 1 to 3, vs vehicle
# [9] = apraglutide 3.3 mg/kg vs vehicle
compound,measurement,setting,value
"Nc1ccn([C@@H]2O[C@H](CO)[C@@H](O)[C@@H]2O)c(=O)n1 [Cytarabine only, Cytarabine]",polymorphonuclear (PMN) cell count,[1],depleted PMN counts
same,"Bacteroidetes, mean (Table 1b)",[2]; Day 0,18.3
same,"Firmicutes, mean (Table 1b)",[2]; Day 0,78.7
same,"unclassified phylum, mean (Table 1b)",[2]; Day 0,1.3
same,"Bacteroidetes, mean (Table 1b)",[2]; Day 18,48.7
same,"Firmicutes, mean (Table 1b)",[2]; Day 18,49.6
same,"unclassified phylum, mean (Table 1b)",[2]; Day 18,1.2
same,"changes in the composition of bacterial species (Bacteroidetes, Firmicutes)",[2],increasing the Bacteroidetes population and decreasing the proportion of Firmicutes bacteria
same,reduction in human leukemia cells,human leukemia cells,significantly greater than vehicle
CCCC[C@H](NC(=O)[C@H](CCC(=O)O)NC(=O)[C@H](CC(=O)O)NC(=O)[C@H](CO)NC(=O)[C@H](Cc1ccccc1)NC(=O)[C@H](CO)NC(=O)CNC(=O)[C@H](CC(=O)O)NC(=O)CNC(=O)[C@@H](N)Cc1c[nH]cn1)C(=O)N[C@H](Cc1ccccc1)C(=O)N[C@H](C(=O)N[C@H](C(=O)N[C@@H](CC(C)C)C(=O)N[C@@H](CC(=O)O)C(=O)N[C@@H](CC(C)C)C(=O)N[C@@H](CC(C)C)C(=O)N[C@@H](C)C(=O)N[C@@H](C)C(=O)N[C@@H](CCCNC(=N)N)C(=O)N[C@@H](CC(=O)O)C(=O)N[C@@H](Cc1ccccc1)C(=O)N[C@H](C(=O)N[C@@H](CC(N)=O)C(=O)N[C@@H](Cc1c[nH]c2ccccc12)C(=O)N[C@@H](CC(C)C)C(=O)N[C@H](C(=O)N[C@@H](CCC(N)=O)C(=O)N[C@H](C(=O)N[C@@H](CCCCN)C(=O)N[C@H](C(=O)N[C@H](C(=O)N[C@@H](CC(=O)O)C(N)=O)C(C)O)C(C)CC)C(C)O)C(C)CC)C(C)CC)C(C)CC)C(C)O (stereo partly drawn) [apraglutide] (H-HGDGSFSDE[Nle][dF][Thr(3ξ)][Ile(3ξ)]LDLLAARDF[Ile(3ξ)]NWL[Ile(3ξ)]Q[Thr(3ξ)]K[Ile(3ξ)][Thr(3ξ)]D-NH2),colon length,"[3]; 8.5 Gy + C57BL/6J bone marrow/spleen cells, apraglutide 3 mg/kg s.c. every second day Day −9 to +7, vs vehicle group",increased colon lengths that were nearly the same as the control mice
same,mean severity score of the regenerative cryptal hyperplasia (jejunum),[3]; [8],slightly increased
same,overall mean severity score of mucosal degenerative/inflammatory changes in the jejunum,[3]; [8],slightly decreased
same,improvement in animal survival vs cytarabine alone,[1]; all apraglutide-treated groups,statistically significant
same,plasma citrulline concentrations,[1]; apraglutide 0.33 mg/kg and 1.1 mg/kg with cytarabine vs cytarabine alone,improvement in citrulline concentrations
same,polymorphonuclear (PMN) cell count,[1],not reversed
same,initial weight loss,[1]; cytarabine combined with 0.11 mg/kg apraglutide or hGLP-2 (0.60 mg/kg twice daily),did not decrease initial weight loss
same,recovery of hematological parameters,blood cell count,did not impact
same,impact on cytarabine- or melphalan-induced immunosuppression,"WBC, NEU and LYMPH; combination with apraglutide",no negative impact
same,mice survived past Day 9,"[4]; 7.0 Gy + allogeneic transplant, apraglutide 3 mg/kg s.c.",40%
same,median survival,"[4]; 7.0 Gy + allogeneic transplant, apraglutide 3 mg/kg s.c. Day −9 to +7",9 days
same,body weight of surviving mice beyond Day 9,[4]; Group A,regained body weight
same,length of the small intestine,"[4]; Groups A, B and C compared",no differences were observed
same,"weight loss, Group A vs Group B","[4]; apraglutide 3 mg/kg s.c. vs vehicle, both TBI/BMT",No significant difference
same,animal survival (Kaplan-Meier),[4]; apraglutide initiated before TBI/BMT vs TBI/BMT animals,enhanced survival; also recorded: significant difference relative to TBI/BMT animals
same,mice with intestinal pathological score of 0,"[4]; score 0 least severe to 4 most severe, Group A, 10 mice",four out of out of ten
same,lymphocyte engraftment,[5]; apraglutide 3.3 mg/kg Days −9 to +7,successfully achieved
same,median survival,[5]; [9],similar
same,"post-mortem histological examination, mucosal degenerative/inflammatory changes",[5]; [9],less mucosal degenerative/inflammatory changes
same,weight loss,[5]; [9],similar
same,overall survival,"[5]; on Day +9, apraglutide 3.3 mg/kg",40%
same,"engraftment rate in blood, spleen and bone marrow (CD45 expression)","[6]; apraglutide 3.3 mg/kg Days −6 to 18, TBI 1.44 Gy, hPBMC 3×10^7",not affected
same,hCD45+ cells infiltration in the intestinal wall,[6]; apraglutide vs vehicle,no difference
same,"changes in the composition of bacterial species (Bacteroidetes, Firmicutes)",[2],the effect was reduced
same,degenerative intestinal changes (villi and crypt atrophy) caused by cytarabine or melphalan,"[7]; apraglutide co-administration, 3.3 mg/kg",reduced
same,chemotherapy-induced weight loss,[7]; apraglutide with cytarabine or melphalan,attenuated
same,overall survival,[7]; vs vehicle-only or chemotherapy-only groups,improved overall survival
same,"weight of duodenum, ileum and jejunum",[7]; with apraglutide,increased in weight
"N[C@@H](Cc1ccc(N(CCCl)CCCl)cc1)C(=O)O [melphalan, Melphalan, reference compound]",WBC and LYMPH vs vehicle,"WBC, NEU and LYMPH; melphalan on Day 9, with or without apraglutide",severe decreases

# Reference: patent US20240285730A1, “COMPOSITIONS AND METHODS FOR THE TREATMENT OF GRAFT VERSUS HOST DISEASE” (VectivBio AG, priority 2021, published 2024)
